Activity calls are given as the source filed them.

What is called AC50 is the midpoint of the concentration-response curve, whichever way the signal moves. One may read the CC50 as the concentration giving 50% cytotoxicity.

The target of experiment [1] is Cytochrome P450 2C19 (Homo sapiens, UniProt P33261). Put plainly: Cytochrome panel assay with activity outcomes. Panel member name: p450-cyp2c19 Compounds with AC50 equal or less than 10 uM are considered active. The format is functional. To be noted: read-out: AC50.
The target of experiment [2] is Cytochrome P450 2D6 (Homo sapiens, UniProt P10635).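 Also: CYP2D6 member of a cytochrome P450 panel assay.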
Experiment [3] has as its target T1, Cytochrome P450 1A2 (Homo sapiens, UniProt P05177).
T1 sequence (P05177 whole entry): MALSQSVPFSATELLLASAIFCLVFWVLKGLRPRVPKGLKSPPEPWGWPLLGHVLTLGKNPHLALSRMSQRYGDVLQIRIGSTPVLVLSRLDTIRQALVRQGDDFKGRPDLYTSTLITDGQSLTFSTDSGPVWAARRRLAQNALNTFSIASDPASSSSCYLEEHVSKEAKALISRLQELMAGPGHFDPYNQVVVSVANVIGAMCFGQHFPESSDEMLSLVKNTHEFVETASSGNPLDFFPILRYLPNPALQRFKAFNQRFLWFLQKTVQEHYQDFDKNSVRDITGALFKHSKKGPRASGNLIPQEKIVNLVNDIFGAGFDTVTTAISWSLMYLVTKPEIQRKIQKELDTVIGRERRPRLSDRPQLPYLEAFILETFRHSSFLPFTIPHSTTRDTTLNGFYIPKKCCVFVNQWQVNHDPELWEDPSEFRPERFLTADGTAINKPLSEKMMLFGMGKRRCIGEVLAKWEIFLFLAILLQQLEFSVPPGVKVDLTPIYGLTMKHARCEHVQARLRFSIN

Experiment [4] has as its system Streptococcus sp. 'group A'. The experiment can be described thus: growth inhibition of control SK(-) GAS strain, dose response, counter-screen for streptokinase expression inhibitor project, luminescence, kanamycin, BacTiterGlo, confirmation (AID 1900). The format is functional, organism-based.
Experiment [5] deals with T2, Streptokinase A (Streptococcus pyogenes serotype M1, UniProt P10520).
T2 sequence (P10520 whole entry): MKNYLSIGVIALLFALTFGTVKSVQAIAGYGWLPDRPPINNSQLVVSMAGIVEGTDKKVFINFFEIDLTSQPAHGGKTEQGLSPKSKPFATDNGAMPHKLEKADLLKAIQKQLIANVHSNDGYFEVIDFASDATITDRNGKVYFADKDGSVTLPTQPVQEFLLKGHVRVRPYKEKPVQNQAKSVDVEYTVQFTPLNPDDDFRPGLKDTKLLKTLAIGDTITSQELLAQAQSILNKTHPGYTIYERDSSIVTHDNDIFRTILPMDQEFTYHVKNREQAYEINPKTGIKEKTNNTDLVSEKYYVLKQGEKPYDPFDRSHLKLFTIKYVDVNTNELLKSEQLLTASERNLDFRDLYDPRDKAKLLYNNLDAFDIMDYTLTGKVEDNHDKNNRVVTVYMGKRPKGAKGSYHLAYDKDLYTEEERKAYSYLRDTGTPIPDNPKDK
Put plainly: S. pyogenes streptokinase expression inhibitors, potency, dose response, plasminogen activation absorbance, OD405 (AID 1914).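 Also: secreted streptokinase activity via plasminogen activation per viability signal from cell pellet.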 In kind it is functional, Streptococcus pyogenes M1 GAS.

Experiment [6] deals with Streptococcus. Put plainly: Group A Streptococcus viability loss, dose response, counter-screen for streptokinase expression inhibitor project, luminescence, BacTiterGlo (AID 1915).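 Also: potency for reduction of bacterial viability or growth.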 The format is functional, organism-based. A general note: Counterscreens check selectivity or assay interference.
The target in experiment [7] is Cytochrome P450 2C9 (Homo sapiens, UniProt P11712).
For experiment [8], the target named is Cytochrome P450 3A4 (Homo sapiens, UniProt P08684).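 Also: CYP3A4 tested as one member of a cytochrome P450 panel screen.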
For experiment [9], the target named is T3, Corticotropin-releasing factor receptor 2/Corticotropin-releasing factor-binding protein (Homo sapiens, UniProt P24387+Q13324).
T3 sequence (Q13324 whole entry): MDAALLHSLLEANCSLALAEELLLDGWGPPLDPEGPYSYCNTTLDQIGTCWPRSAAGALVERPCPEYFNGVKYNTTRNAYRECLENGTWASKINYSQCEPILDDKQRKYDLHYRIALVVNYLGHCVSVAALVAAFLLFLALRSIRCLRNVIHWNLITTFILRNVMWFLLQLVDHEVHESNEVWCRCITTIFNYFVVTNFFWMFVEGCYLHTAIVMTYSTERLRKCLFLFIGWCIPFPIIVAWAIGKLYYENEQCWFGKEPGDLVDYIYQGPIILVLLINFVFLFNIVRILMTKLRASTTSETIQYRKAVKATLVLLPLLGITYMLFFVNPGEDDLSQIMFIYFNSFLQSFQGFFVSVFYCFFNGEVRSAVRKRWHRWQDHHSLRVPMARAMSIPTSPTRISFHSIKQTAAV
T3 sequence (P24387 whole entry): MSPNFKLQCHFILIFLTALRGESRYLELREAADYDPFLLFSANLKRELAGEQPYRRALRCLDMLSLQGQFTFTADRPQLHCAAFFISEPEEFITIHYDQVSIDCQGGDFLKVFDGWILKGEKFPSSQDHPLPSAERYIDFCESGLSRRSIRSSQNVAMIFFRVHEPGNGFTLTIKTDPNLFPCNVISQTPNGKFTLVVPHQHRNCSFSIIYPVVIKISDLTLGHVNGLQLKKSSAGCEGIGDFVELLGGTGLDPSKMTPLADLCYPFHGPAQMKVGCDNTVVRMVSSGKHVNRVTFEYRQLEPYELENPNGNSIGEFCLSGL
The experiment can be described thus: activators of CRF receptor 2 with binding protein – uHTS hits, confirmation (AID 602473). The format is functional. To be noted: read-out: EC50_Mean.

A short description of experiment [10]: Luminescence Cell-Based Dose Retest to Confirm Inhibitors of Cancer Stem Cells. [Related pubchem assays (depositor defined):AID2717, AID2721]. The format is functional. To be noted: Homo sapiens.
In experiment [11] the target is T4, Heat shock factor protein 1 (Mus musculus, UniProt P38532).
T4 sequence (P38532 whole entry): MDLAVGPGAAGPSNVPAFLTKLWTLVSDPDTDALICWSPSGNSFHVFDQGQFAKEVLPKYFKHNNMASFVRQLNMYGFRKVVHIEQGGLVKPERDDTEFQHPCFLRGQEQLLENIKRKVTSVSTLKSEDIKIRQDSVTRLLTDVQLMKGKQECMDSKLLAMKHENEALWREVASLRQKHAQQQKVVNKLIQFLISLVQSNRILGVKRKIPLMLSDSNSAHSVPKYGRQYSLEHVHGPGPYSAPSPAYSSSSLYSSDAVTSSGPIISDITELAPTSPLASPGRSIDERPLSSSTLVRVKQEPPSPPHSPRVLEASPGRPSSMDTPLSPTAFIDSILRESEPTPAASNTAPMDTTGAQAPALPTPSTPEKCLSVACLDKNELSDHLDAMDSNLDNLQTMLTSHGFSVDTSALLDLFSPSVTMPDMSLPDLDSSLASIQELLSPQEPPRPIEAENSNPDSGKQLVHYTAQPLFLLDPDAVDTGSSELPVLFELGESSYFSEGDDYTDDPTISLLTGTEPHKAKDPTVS
Put plainly: inhibition of MG132-induced HSE-luciferase signal, confirmation, cell-based, NIH3T3, luminescence, dose retest (AID 2382).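 Also: NIH3T3 fibroblasts with HSF1-driven luciferase reporter stressed by proteasome inhibitor MG132; luminescence from HSF1-driven luciferase expression after 8 hours of MG132 stress.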 In kind it is functional.

Experiment [12] has as its target Paired box protein Pax-8 (Homo sapiens, UniProt Q06710). The experiment can be described thus: inhibitors of PAX8-driven TPO luciferase reporter, dose response, RMG-I cells, cherry-pick (AID 687027).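 Also: luciferase reporter driven by Pax8 target thyroperoxidase promoter measured by SteadyGlo luminescence.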 In kind it is functional, cell-based. A general note: A reporter such as luciferase makes a cellular process visible.
Experiment [13] can be described thus: HEp-2 cell cytotoxicity, dose response, cytotoxicity control for RSV inhibitor project, HTS (AID 2410). To be noted: human respiratory syncytial virus. In kind it is functional.
The nature of experiment [14]: Luminescence Cell-Based Dose Response HTS to Identify Activators of Luciferase Translation or Activity in H4 […] Cells. [Related pubchem assays: 1829 (Project Summary), 1814 (Primary HTS)]. In kind it is functional.

Chain of Cytochrome P450 2C19 (P33261 whole entry): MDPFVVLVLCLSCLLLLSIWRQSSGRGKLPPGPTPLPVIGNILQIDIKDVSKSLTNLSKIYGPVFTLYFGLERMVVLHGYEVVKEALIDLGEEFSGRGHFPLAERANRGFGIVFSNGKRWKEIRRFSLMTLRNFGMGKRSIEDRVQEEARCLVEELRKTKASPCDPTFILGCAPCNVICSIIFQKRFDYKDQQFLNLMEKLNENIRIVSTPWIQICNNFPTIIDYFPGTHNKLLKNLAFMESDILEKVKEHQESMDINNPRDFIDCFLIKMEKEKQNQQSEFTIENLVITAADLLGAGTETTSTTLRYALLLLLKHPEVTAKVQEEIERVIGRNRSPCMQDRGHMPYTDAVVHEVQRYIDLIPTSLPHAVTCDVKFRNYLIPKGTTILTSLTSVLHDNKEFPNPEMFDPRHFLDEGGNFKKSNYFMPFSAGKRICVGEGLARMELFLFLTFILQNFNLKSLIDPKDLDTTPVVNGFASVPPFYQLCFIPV
Chain of Cytochrome P450 2D6 (P10635 whole entry): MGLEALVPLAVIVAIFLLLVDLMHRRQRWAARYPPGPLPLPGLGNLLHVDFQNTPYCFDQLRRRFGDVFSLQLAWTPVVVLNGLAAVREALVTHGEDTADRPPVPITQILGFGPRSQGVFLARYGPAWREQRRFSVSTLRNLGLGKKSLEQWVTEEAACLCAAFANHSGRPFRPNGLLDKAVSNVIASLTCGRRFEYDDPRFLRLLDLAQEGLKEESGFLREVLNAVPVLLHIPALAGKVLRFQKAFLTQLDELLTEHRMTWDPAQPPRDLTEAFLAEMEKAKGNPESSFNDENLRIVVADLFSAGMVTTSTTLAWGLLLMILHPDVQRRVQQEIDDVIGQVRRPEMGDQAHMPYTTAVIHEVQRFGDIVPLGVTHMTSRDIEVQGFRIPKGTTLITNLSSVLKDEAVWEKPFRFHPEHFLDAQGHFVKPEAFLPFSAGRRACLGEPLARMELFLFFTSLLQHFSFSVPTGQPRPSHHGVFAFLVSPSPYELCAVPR
Chain of Paired box protein Pax-8 (Q06710 whole entry): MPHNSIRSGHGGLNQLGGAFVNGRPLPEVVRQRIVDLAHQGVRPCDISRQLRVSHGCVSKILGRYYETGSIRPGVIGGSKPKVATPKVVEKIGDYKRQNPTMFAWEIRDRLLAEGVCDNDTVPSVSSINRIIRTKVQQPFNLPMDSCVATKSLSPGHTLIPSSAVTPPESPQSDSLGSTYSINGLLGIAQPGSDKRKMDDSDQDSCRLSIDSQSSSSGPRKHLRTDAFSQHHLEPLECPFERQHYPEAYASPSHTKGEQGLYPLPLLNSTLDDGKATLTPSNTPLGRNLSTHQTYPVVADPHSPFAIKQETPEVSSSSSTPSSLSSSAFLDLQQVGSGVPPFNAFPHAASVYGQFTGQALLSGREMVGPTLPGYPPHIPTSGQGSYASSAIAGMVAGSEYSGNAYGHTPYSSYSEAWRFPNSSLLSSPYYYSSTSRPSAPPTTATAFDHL
Chain of Cytochrome P450 3A4 (P08684 whole entry): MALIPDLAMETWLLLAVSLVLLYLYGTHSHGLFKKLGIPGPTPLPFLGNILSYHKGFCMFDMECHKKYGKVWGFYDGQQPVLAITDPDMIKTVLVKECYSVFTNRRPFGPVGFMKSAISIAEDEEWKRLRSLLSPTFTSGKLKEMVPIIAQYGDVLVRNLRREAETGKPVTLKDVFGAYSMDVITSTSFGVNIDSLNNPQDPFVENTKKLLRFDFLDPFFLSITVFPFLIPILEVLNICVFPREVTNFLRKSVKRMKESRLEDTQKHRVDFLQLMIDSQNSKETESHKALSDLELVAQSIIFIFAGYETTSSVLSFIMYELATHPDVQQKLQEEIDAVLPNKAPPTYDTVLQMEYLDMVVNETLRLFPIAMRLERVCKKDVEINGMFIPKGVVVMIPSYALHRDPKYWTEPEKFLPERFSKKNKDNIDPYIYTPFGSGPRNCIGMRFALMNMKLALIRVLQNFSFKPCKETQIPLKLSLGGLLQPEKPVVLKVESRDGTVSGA
Chain of Cytochrome P450 2C9 (P11712 whole entry): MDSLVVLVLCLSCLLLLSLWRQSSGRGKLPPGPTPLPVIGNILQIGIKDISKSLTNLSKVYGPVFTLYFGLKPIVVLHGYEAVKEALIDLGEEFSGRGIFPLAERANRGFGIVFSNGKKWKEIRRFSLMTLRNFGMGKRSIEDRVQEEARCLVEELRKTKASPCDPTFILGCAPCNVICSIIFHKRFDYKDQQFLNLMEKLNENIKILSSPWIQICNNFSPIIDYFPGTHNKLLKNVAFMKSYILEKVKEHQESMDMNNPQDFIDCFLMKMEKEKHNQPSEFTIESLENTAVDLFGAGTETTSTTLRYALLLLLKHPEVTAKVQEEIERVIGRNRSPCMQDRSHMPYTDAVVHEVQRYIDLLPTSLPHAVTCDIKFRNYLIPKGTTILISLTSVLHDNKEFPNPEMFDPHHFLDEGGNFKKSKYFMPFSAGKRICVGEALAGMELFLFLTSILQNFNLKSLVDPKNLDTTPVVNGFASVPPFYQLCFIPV

Consider `COC(=O)[C@@]1(Cc2ccc(F)cc2)[C@H]2c3cc(C(=O)N(C)C)n(Cc4ccc(Cl)c(C(F)(F)F)c4)c3C[C@H]2CN1C(=O)c1ccccc1`, for which the AC50 was 5.01 µM (inconclusive) in experiment [1], 6.31 µM (inconclusive) in experiment [2] and 15.8 µM (inconclusive) in experiment [3].
Regarding `COC(=O)[C@@]1(Cc2ccc(OC)cc2)[C@H]2c3cc(C(=O)N4CCCC4)n(CCc4ccc(O)c(OC)c4)c3C[C@H]2CN1C(=O)c1ccccc1`, the concentration at half-maximal activity (AC50) in [2] is 39.8 µM (inconclusive).
The same measure, in the same setting: with `Clc1ccc(COc2ccccn2)cc1Cl` the figure was 11.2 µM (inconclusive).
As for `COC(=O)[C@@]1(Cc2ccc(F)cc2)[C@H]2c3cc(C(=O)N(C)C)n(Cc4cc(C)n(C)n4)c3C[C@H]2CN1C(=O)c1ccccc1`, the AC50 in experiment [1] and in experiment [2] was 39.8 µM (inconclusive) each time.
On to `O=C(NCc1ccc2c(c1)OCO2)C1CC(=O)N(C2CCCC2)C1` (centres undefined), for which the results for the AC50 in experiment [1], in experiment [2] and in experiment [3] were 35.5 µM (inconclusive), 12.6 µM (inconclusive) and 17.8 µM (inconclusive), respectively.
Turning to `Cc1csc(Nc2ccc(Cl)cc2)[n+]1-c1ccc(Cl)cc1`, the EC50 in experiment [4] was 12.9 µM (active); in experiment [5] it was 29.9 µM (active); in experiment [6], > 150 µM (not active).
For `CC(C)C(=O)NCCCc1ccccc1`, the concentration at half-maximal activity (AC50) in experiment [7] is 5.62 µM (inconclusive); in [2], 20 µM (inconclusive).
With `O=C(CN1CCN(c2ccc(Cl)cc2)CC1)Nc1cccc(F)c1`, the AC50 in experiment [8] was 25.1 µM (inconclusive); in experiment [2], 1.41 µM (inconclusive).
As to `COc1ccc2[nH]c(-c3ccccc3)c(CCNC(C)=O)c2c1`, the AC50 in experiment [2] was 25.1 µM (inconclusive).
For the molecule `COc1ccc2oc(C(=O)OCC(=O)NC3(C#N)CCCC3)c(C)c2c1`, the values for the EC50 in experiment [4], in experiment [5] and in experiment [6] were 57.9 µM (active), > 150 µM (not active) and > 150 µM (not active), respectively.
Take `Cn1c(CNC(=O)CNC(=O)c2ccc(F)cc2)cc(=O)n(C)c1=O`: the EC50 in [4], in [5] and in [6] was > 150 µM (not active) each time.
In the case of `Cc1ccc(C(=O)NNC(=S)NC(=O)c2ccc(Cl)cc2Cl)cc1`, the EC50 in [4] was 0.196 µM (active); in [9] it was 2.78 µM (active); in experiment [6], 3.82 µM (active).
`Nc1nc(CN2CCN(c3ccc(F)cc3)CC2)nc(N2CCCc3ccccc32)n1`: the EC50 in experiment [4] was 2.01 µM (active); in experiment [5] it was > 150 µM (not active); in experiment [6], > 150 µM (not active).
With `COc1ccc(NC(=O)CSc2nnc(CNC(=O)c3ccco3)n2-c2ccccc2OC)cc1`, the AC50 in [8] is 39.8 µM (inconclusive); in [7], 5.01 µM (inconclusive); in experiment [1], 3.98 µM (inconclusive); in experiment [2] it was 35.5 µM (inconclusive).
In the case of `c1ccc(-c2nnc3sc(CN4CCc5ccccc54)cn23)cc1`, the half-maximal activity concentration (AC50) in [10] is 7.58 µM (active).
Consider `C1=Cc2ccccc2C1.C=C(C)c1ccccc1.[N-]=[N+]=Nc1ccccc1`, for which the AC50 in [1] was 3.16 µM (inconclusive); in experiment [2] it was 3.98 µM (inconclusive).
In the case of `Cc1cc(F)ccc1S(=O)(=O)NCC1CC2CCC1C2` (centres undefined), in experiment [9], the EC50 was > 53 µM (inactive).
On to `O=C(NC(=S)Nc1ccc(F)cc1)c1ccc2c(c1)OCCO2`, for which the EC50 in [11] was > 195 µM (not active); in experiment [9], > 53 µM (inactive).
Regarding `CCN(CC)c1ccc(C=C2SC(=S)NC2=O)cc1`, in [9], the EC50 was 4.11 µM (active).
The same measure, in the same setting: with `CCOc1ccc(NS(=O)(=O)c2ccc(C(=O)NCC(c3cccs3)N3CCOCC3)cc2)cc1` (centres undefined) the figure was 5.04 µM (active).
Regarding `Clc1ccc(/C=C/c2nc(Cl)c(-c3ccc(Cl)cc3)c(Cl)n2)cc1`, the EC50 is 33 µM (active) in experiment [4], 10 µM (active) in experiment [5] and > 150 µM (not active) in experiment [6].
In the case of `COc1ccc(S(=O)(=O)Nc2ccc3c(c2)CC(=O)N([C@H](C)CO)C[C@H](C)[C@@H](CN(C)Cc2ccc(Cl)c(Cl)c2)O3)cc1`, the AC50 in experiment [12] is 16.2 µM (active).
Turning to `Cc1ccc(S(=O)(=O)Nc2ccc3c(c2)C(=O)N([C@@H](C)CO)C[C@@H](C)[C@@H](CN(C)Cc2ccc(C(F)(F)F)cc2)OCCCC[C@@H](C)O3)cc1`, the concentration at half-maximal activity (AC50) in experiment [12] is 13.3 µM (active).
For the molecule `CCOc1ccc(/C=N/NC(=S)NC2CC3C=CC2C3)cc1` (centres undefined), the EC50 in experiment [4], in [5] and in experiment [6] was > 150 µM (not active) each time.
`C=CCn1/c(=N/C(=O)C2COc3ccccc3O2)sc2cccc(OC)c21` (centres undefined): the 50% cytotoxic concentration (CC50) in experiment [13] is 18.4 µM (active).
With `Cc1ccc(C(C)C)c(OCc2ccc(C(=O)N/N=C/c3ccc(O)c(O)c3)cc2)c1`, the AC50 in [10] was 3.23 µM (active).
Regarding `Cc1cc(N/N=C/c2ccccc2Cl)nc(NCc2ccccc2)n1`, the AC50 in experiment [10] is 3.88 µM (active).
Consider `CC(=O)O[C@@H]1CN2CCC1CC2` [(S)-ACECLIDINE], for which the concentration at half-maximal activity (AC50) in experiment [2] was 15.8 µM (inconclusive).
As for `CC1Oc2cc3oc4c(O)c5c(cc4c(=O)c3c(O)c2C1(C)C)C=CC(C)(C)O5` (centres undefined) [GERONTOXANTHONE A], the EC50 in [4] is 1.11 µM (active); in [5], 10.7 µM (active); in experiment [14], 2.13 µM (active); in experiment [6], 25.9 µM (active). Besides, in [13], the CC50 is 14.9 µM (active).

The record behind these values is ChEMBL document CHEMBL1201862, “PubChem BioAssay data set” (2004).
